The values below come from ChEMBL document CHEMBL4138081, “Recent developments of coumarin-containing derivatives and their anti-tubercular activity” (Eur J Med Chem, 2017).

By MIC is commonly meant the least concentration at which growth counts as inhibited. Read a high MIC as weaker potency.

The structures appear in SMILES notation. ≈ marks a conversion by molar mass, not a printed value.

The subject of test [1] is Mycobacterium tuberculosis. Put plainly: Antimycobacterial activity against INH resistant Mycobacterium tuberculosis after 72 hrs by alamar blue dye-based broth dilution assay. The format is functional. (Resazurin is reduced to fluorescent resorufin, in cell work by metabolically active cells.)
The nature of test [2]: Resistant index, ratio of MIC for INH resistant Mycobacterium tuberculosis to MIC for Mycobacterium tuberculosis H37Rv. The test is classed as functional.

In turn, `Cc1cc2oc(=O)c(C(c3cccs3)c3c(O)c4cc(C)c(C)cc4oc3=O)c(C)c2cc1C` (centres undefined) showed an MIC in test [1] of 8.34 µM (≈ 3.94 µg/mL). Further, in test [2], the Ratio is 1.6.

Consider `O=c1oc2ccccc2cc1C(c1cccs1)c1c(O)c2ccccc2oc1=O` (centres undefined), for which the lowest concentration to inhibit growth in test [1] (MIC) was 8.34 µM (≈ 3.36 µg/mL). The Ratio in test [2] amounted to 1.6.
